According to patent US11311522B1 (Cavion, Inc., priority 2018, dated 2022):

Columns and labels:
[1] = system: patients with essential tremor; experiment: T-CALM: Patient Global Impression of Change (PGIC); format: in vivo, human; details: for PGIC (rescaled −3 to 3), LS mean (SE) / PGIC, LS mean difference from placebo (95% CI): ANCOVA; for 0 - no change / 1 - minimally improved / 2 - much improved / 3 - very much improved / −1 - minimally worse / −2 - much worse / −3 - very much worse: PGIC
Text: Treatment success as measured by PGIC was summarized using descriptive statistics.

[2] = system: patients with schizophrenia; experiment: PN004: efficacy in acutely psychotic patients with schizophrenia (PANSS); details: human, in vivo
Text: The primary efficacy endpoint was the mean change from baseline in the Positive and Negative Syndrome Scale (PANSS) total score at Week 4; secondary efficacy endpoints included responder rates on the PANSS total score at Week 4 and the change from baseline in the Clinical Global Impressions—Severity of Illness Scale at Week 4. Safety was monitored by adverse events, laboratory evaluations, ECGs, Holter monitoring, vital signs, the Simpson-Angus Scale, the Barnes Akathisia Rating Scale, the Abnormal Involuntary Movement Scale, and the Columbia Suicide-Severity Rating scale (C-SSRS).

[3] = system: patients with schizophrenia; experiment: PN004: safety; format: in vivo, human
[4] = target: human peroxisome proliferator-activated receptor gamma (PPARγ) (Homo sapiens, UniProt P37231); experiment: PPARγ binding
[5] = Study PN004, subjects with schizophrenia, BID Days 1 to 28, CX-8998 N = 86, Olanzapine N = 47

Chain of human peroxisome proliferator-activated receptor gamma (PPARγ) (P37231 whole entry): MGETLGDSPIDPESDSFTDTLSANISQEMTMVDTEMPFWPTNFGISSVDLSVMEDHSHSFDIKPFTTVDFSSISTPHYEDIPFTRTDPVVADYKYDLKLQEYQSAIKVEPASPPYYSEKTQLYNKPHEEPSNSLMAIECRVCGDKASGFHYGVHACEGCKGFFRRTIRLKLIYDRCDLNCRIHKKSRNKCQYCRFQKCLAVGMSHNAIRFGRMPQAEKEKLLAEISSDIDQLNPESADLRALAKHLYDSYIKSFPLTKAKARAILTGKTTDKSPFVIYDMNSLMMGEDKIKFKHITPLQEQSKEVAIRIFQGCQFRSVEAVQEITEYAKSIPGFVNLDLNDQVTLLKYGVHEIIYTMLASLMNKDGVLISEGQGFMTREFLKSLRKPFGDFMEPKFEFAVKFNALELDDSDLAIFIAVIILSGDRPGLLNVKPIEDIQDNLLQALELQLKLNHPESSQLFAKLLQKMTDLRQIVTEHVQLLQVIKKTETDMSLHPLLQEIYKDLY

## CC(C)c1ccc(CC(=O)N[C@H](C)c2ccc(OCC(F)(F)F)cn2)cc1 [CX-8998]
[1]; Day 15
  PGIC Improved, percent: 66.67%
  PGIC No Change, number: 11
  PGIC No Change, percent: 28.2%
  PGIC Worsened, number: 2
  PGIC Worsened, percent: 5.12%
  PGIC (rescaled −3 to 3), LS mean (SE): 0.9 (0.17)
  PGIC, LS mean difference from placebo (95% CI): 0.7 (0.2, 1.1)
  0 - no change: 11 (28%) n (%)
  1 - minimally improved: 17 (44%) n (%)
  2 - much improved: 8 (21%) n (%)
  3 - very much improved: 1 (3%) n (%)
  −1 - minimally worse: 1 (3%) n (%)
  −2 - much worse: 1 (3%) n (%)
  −3 - very much worse: 0 n (%)
[1]; Day 15, N = 39
  PGIC (rescaled −3 to 3), Mean (SD): 1 (1.0)
  PGIC (rescaled −3 to 3), Median (minimum, maximum): 1 (−2, 3)
  PGIC Category 0 No change, patients n (%): 11 (28%)
  PGIC Category 1 Minimally improved, patients n (%): 17 (44%)
  PGIC Category 2 Much improved, patients n (%): 8 (21%)
  PGIC Category 3 Very much improved, patients n (%): 1 (3%)
  PGIC Category −1 Minimally worse, patients n (%): 1 (3%)
  PGIC Category −2 Much worse, patients n (%): 1 (3%)
  PGIC Category −3 Very much worse, patients n (%): 0
[1]; Day 28
  PGIC Improved, number: 20
  PGIC Improved, percent: 54.05%
  PGIC No Change, number: 14
  PGIC No Change, percent: 37.84%
  PGIC Worsened, number: 3
  PGIC Worsened, percent: 8.11%
  PGIC (rescaled −3 to 3), LS mean (SE): 0.8 (0.19)
  PGIC, LS mean difference from placebo (95% CI): 0.4 (−0.1, 0.9)
  0 - no change: 14 (36%) n (%)
  1 - minimally improved: 10 (26%) n (%)
  2 - much improved: 7 (18%) n (%)
  3 - very much improved: 3 (8%) n (%)
  −1 - minimally worse: 1 (3%) n (%)
  −2 - much worse: 1 (3%) n (%)
  −3 - very much worse: 1 (3%) n (%)
[1]; Day 28, N = 39
  PGIC Category 0 No change, patients n (%): 14 (36%)
  PGIC Category 1 Minimally improved, patients n (%): 10 (26%)
  PGIC Category 2 Much improved, patients n (%): 7 (18%)
  PGIC Category 3 Very much improved, patients n (%): 3 (8%)
  PGIC Category −1 Minimally worse, patients n (%): 1 (3%)
  PGIC Category −2 Much worse, patients n (%): 1 (3%)
  PGIC Category −3 Very much worse, patients n (%): 1 (3%)
[1]; Day 28, N=37
  PGIC (rescaled −3 to 3), Mean (SD): 1 (1.3)
  PGIC (rescaled −3 to 3), Median (minimum, maximum): 1 (−3, 3)
[2]
  PANSS total score change at Week 4 and secondary endpoints vs placebo: No statistically significant differences
[3]; [5]
  Anxiety: 2 (2.3)
  At least 1 adverse event: 41 (47.7)
  Chronic pharyngitis: 2 (2.3)
  Dizziness: 2 (2.3)
  Headache: 2 (2.3)
  Insomnia: 13 (15.1)
  Rhinopharyngitis: 2 (2.3)
  Schizophrenia: 3 (3.5)
  Sinus tachycardia: 2 (2.3)
  Somnolence: 2 (2.3)
[3]; in vivo
  Subjects who discontinued treatment because of adverse events: 10.5%
  Subjects with dizziness and vertigo: 4.7%

## C=C(C)c1ccc(CC(=O)N[C@H](C)c2ccc(OCC(F)(F)F)cn2)cc1 [M01]
[4]
  inhibition at 10 µM: 54%
